Legend:
Format in all cases: physicochemical
[1] = target: T1, HSA (Homo sapiens, UniProt P02768); test: Differential scanning calorimetry (DSC) of HSA solutions: thermal stabilization effect; conditions: 100-μM HSA, 500-μM agent
Method: Each of various medical agents was added to 100-μM HSA ( 1/15 mM phosphate buffer, pH 7.4) and then the following medical agents under test were prepared:
The stabilization effect was evaluated in terms of a thermodynamic viewpoint by calculating a thermal transition temperature (Tm) and a change ΔHcal in enthalpy of transition from a differential scanning calorimetry (DSC) measurement on those medical agents under test (1) to (4). If the thermal transition temperature (Tm) increases, from the thermodynamic viewpoint, it means an increase in stability of the medical agents under test. In addition, if the change ΔHcal in enthalpy of transition increases, it means an increase in stability of the medical agents transition under test.
Those values were analyzed by a DSC thermogram of the HSA solution. Differential scanning calorimetry (DSC method)
For the DSC, measurement was made using the MC-2 differential scanning calorimeter manufactured by MicroCal Co., Ltd. The measuring conditions are shown below.
Albumin content: 100 μM Solvent: 1/15 M phosphate buffer (pH 7.4)
Reversibility of thermal denaturation was confirmed by cooling the albumin solution after first measurement and then heating the albumin solution again. […]

[2] = target: T1, HSA; test: Carbonyl content in HSA after oxidation with AAPH; conditions: oxidation with excess AAPH; compared with medical agent under test without addition
Method: An excess amount of an oxidizing agent, 2,2′-azobis-(2-amidinopropane) dihydrochloride (AAPH) was added to HSA to oxidize the HSA. After the oxidation for a predetermined time, the carbonyl content in HSA was determined.

[3] = target: T1, HSA; test: Aggregate-inhibition effect under heat with medium-chain fatty acids other than sodium caprylate (electrophoresis); conditions: 5-fold concentration (120 μM) of fatty acid added to 24-μM HSA phosphate buffer (67 mM, pH 7.4)
Method: The measurement samples used were such that 5-fold concentrations (120 μM) of the respective fatty acids were each added to a 24-μM HSA phosphate buffer (67 mM, pH 7.4).

T1 sequence (P02768 25-609): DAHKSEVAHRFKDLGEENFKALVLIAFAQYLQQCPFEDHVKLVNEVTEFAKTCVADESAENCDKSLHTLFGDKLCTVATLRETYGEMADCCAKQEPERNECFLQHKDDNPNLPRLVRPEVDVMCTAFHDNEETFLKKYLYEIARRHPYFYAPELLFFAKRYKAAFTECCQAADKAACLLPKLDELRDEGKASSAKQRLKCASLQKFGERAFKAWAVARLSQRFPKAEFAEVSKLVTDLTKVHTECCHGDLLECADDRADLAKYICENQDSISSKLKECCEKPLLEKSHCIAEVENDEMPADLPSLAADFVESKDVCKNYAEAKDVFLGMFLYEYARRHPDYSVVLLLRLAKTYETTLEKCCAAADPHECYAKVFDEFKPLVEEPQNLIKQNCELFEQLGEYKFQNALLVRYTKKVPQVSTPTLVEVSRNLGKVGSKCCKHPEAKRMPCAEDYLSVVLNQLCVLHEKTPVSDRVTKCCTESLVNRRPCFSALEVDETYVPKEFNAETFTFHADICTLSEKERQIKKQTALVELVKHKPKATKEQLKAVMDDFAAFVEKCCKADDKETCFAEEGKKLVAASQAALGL

`CSCC[C@H](NC(C)=O)C(=O)O` [N-acetyl methionine] was tested, and the “change in Tm compared with HSA solution without added agent (in words)” value [1] was “slight increase in Tm”, the “change in ΔHcal compared with HSA solution without added agent (in words)” value [1] was “increase in change ΔHcal in enthalpy transition” and the “carbonyl content in HSA (degree of oxidation)” value [2] was “significant decrease in carbonyl content”.

With `CCCCCCC(=O)O` [enanthic acid] the “aggregate-inhibition effect under heat” value [3] was “slightly observed”.

With `CCCCCC(=O)O` [caproic acid] the “aggregate-inhibition effect under heat” value [3] was “slightly observed”.
